Reference: US12673933B2, “Aminopyrazine compounds as HPK1 inhibitor and the use thereof” (BEIGENE, LTD., priority 2019, dated 2026)
pIC50: −log10 of the molar value.

The molecules below were run against T1, HPK1 kinase (aa1-346, Life Technologies) (Homo sapiens, UniProt Q92918) (assay: HPK Kinase Activity Assay at 1 mM ATP (TR-FRET)). Conditions: HPK1 kinase 40 nM, 0.5 μM STK1 substrate, read-out: Enzymatic activity IC50.
T1 construct: HPK1 kinase (aa1-346, Life Technologies); purchased Life Technologies
T1 sequence (Q92918 1-346): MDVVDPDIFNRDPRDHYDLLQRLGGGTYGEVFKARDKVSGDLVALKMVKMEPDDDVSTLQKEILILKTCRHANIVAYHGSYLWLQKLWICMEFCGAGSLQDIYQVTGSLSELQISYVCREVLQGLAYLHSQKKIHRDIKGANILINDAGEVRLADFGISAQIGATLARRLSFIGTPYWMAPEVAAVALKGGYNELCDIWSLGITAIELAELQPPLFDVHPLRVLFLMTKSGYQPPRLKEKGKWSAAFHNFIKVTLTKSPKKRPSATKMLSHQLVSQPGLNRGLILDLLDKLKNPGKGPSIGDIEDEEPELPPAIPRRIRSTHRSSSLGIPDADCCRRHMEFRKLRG
Type: biochemical
Procedure: HPK Kinase Activity Assay at 1 mM ATP
Compounds disclosed herein were tested for inhibition of HPK1 kinase (aa1-346, Life Technologies) activity in assays based on the time-resolved fluorescence-resonance energy transfer (TR-FRET) methodology. The assays were carried out in 384-well low volume black plates in a reaction mixture containing HPK1 kinase (40 nM), 1 mM ATP, 0.5 μM STK1 substrate and 0-10 μM compound in buffer containing 50 mM HEPES, 0.01% BSA, 0.1 mM Orthovanadate, 10 mM MgCl2, 1 mM DTT, pH=7.0, 0.005% Tween-20. The kinase was incubated with the compounds disclosed herein or DMSO for 60 minutes at room temperature and the reaction was initiated by the addition of ATP and STK1 substrate. After reaction at room temperature for 120 minutes, an equal volume of stop/detection solution was added according to the manufacture's instruction (CisBio). The stop/detection solution contained STK Antibody-Cryptate and XL665-conjugated streptavidin in Detection Buffer. The TR-FRET signals (ratio of fluorescence emission at 665 nm over emission at 620 nm with excitation at 337 nm wavelength) were recorded on a PHERAstar FS plate reader (BMG Labtech). Phosphorylation of STK1 substrate led to the binding of STK Antibody-Cryptate to the biotinylated STK1 substrate, which places fluorescent donor (Eu^3+ crypate) in close proximity to the accepter (Streptavidin-XL665), thus resulting in a high degree of fluorescence resonance energy transfer. The inhibition of HPK1 in presence of increasing concentrations of compounds was calculated based on the ratio of fluorescence at 665 nm to that at 620 nm. The IC50 for each compound was derived from fitting the data to the four-parameter logistic equation by Graphpad Prism software.
Work on `Cc1cc(-c2cnc(N)c(OCc3ccnc(N)c3)n2)cc2c1CCN(C)C2` [Example 10, 3-((2-aminopyridin-4-yl)methoxy)-5-(2,5-dimethyl-1,2,3,4-tetrahydroisoquinolin-7-yl)pyrazin-2-amine] yielded a pIC50 of 8.28.
`CN1CCc2c(cc(-c3cnc(N)c(-n4cc(C(=O)N(C)C)cn4)n3)cc2NC2CC2)C1` [Example 290, 1-(3-amino-6-(5-(cyclopropylamino)-2-methyl-1,2,3,4-tetrahydroisoquinolin-7-yl)pyrazin-2-yl)-N,N-dimethyl-1H-pyrazole-4-carboxamide] showed a pIC50 of 7.80.
With `Cc1cc(-c2cnc(N)c(-n3cc(O)cn3)n2)cc2c1CCN(C)C2` [Example 7, 1-(3-amino-6-(2,5-dimethyl-1,2,3,4-tetrahydroisoquinolin-7-yl)pyrazin-2-yl)-1H-pyrazol-4-ol] the pIC50 was 7.82.
With `Cc1cc(-c2cnc(N)c(-n3cc(C(=O)N(C)c4ccccc4Cl)cn3)n2)cc2c1CCN(C)C2` [Example 286, 1-(3-amino-6-(2,5-dimethyl-1,2,3,4-tetrahydroisoquinolin-7-yl)pyrazin-2-yl)-N-(2-chlorophenyl)-N-methyl-1H-pyrazole-4-carboxamide] the pIC50 was 8.44.
With `CNc1cc(-c2cnc(N)c(-n3cc(C(=O)N(C)C)cn3)n2)cc2c1CCN(C)C2` [Example 289, 1-(3-amino-6-(2-methyl-5-(methylamino)-1,2,3,4-tetrahydroisoquinolin-7-yl)pyrazin-2-yl)-N,N-dimethyl-1H-pyrazole-4-carboxamide] the pIC50 was 8.01.
Molecule `Cc1cc(-c2cnc(N)c(-n3cc(C(=O)N(C)CCN4CCCC4)cn3)n2)cc2c1CCN(C)C2` [Example 302, 1-(3-amino-6-(2,5-dimethyl-1,2,3,4-tetrahydroisoquinolin-7-yl)pyrazin-2-yl)-N-methyl-N-(2-(pyrrolidin-1-yl)ethyl)-1H-pyrazole-4-carboxamide] has a pIC50 of 7.27.
`Cc1cc(-c2cnc(N)c(OCc3ccncc3OCc3ccccc3)n2)cc2c1CCN(C)C2` [Example 33, 3-((3-(benzyloxy)pyridin-4-yl)methoxy)-5-(2,5-dimethyl-1,2,3,4-tetrahydroisoquinolin-7-yl)pyrazin-2-amine] showed a pIC50 of 8.09.
Work on `Cc1cc(-c2cnc(N)c(OCc3cc[nH]n3)n2)cc2c1CCN(C)C2` [Example 43, 3-((1H-pyrazol-3-yl)methoxy)-5-(2,5-dimethyl-1,2,3,4-tetrahydroisoquinolin-7-yl)pyrazin-2-amine] yielded a pIC50 of 7.25.
`CCN1CC(n2cc(Oc3nc(-c4cc(C)c5c(c4)CN(C)CC5)cnc3N)cn2)C1` [Example 310, 5-(2,5-dimethyl-1,2,3,4-tetrahydroisoquinolin-7-yl)-3-(1-(1-ethylazetidin-3-yl)-1H-pyrazol-4-yloxy)pyrazin-2-amine] gave a pIC50 of 7.70.
`Cc1cc(-c2cnc(N)c(Oc3cnn(C4CCOCC4)c3)n2)cc2c1CCN(C)C2` [Example 309, 5-(2,5-dimethyl-1,2,3,4-tetrahydroisoquinolin-7-yl)-3-(1-(tetrahydro-2H-pyran-4-yl)-1H-pyrazol-4-yloxy)pyrazin-2-amine] was tested, and the pIC50 was 7.66.
For `Cc1cnccc1COc1nc(-c2cc(C)c3c(c2)CN(C)CC3)cnc1N` [Example 9, 5-(2,5-dimethyl-1,2,3,4-tetrahydroisoquinolin-7-yl)-3-((3-methylpyridin-4-yl)methoxy)pyrazin-2-amine], the pIC50 was 7.77.
Work on `Cc1cc(-c2cnc(N)c(Oc3cnn(CC4(F)CCOCC4)c3)n2)cc2c1CCN(C)C2` [Example 314, 5-(2,5-dimethyl-1,2,3,4-tetrahydroisoquinolin-7-yl)-3-(1-((4-fluoro-tetrahydro-2H-pyran-4-yl)methyl)-1H-pyrazol-4-yloxy)pyrazin-2-amine] yielded a pIC50 of 8.35.
`Cc1cc(-c2cnc(N)c(O[C@@H](C)c3c(Cl)ccc(C(=O)NC4CC4)c3Cl)n2)cc2c1CCN(C)C2` [Example 47B, (S)-3-(1-(3-amino-6-(2,5-dimethyl-1,2,3,4-tetrahydroisoquinolin-7-yl)pyrazin-2-yloxy)ethyl)-2,4-dichloro-N-cyclopropylbenzamide] gave a pIC50 of 5.57.
With `COc1c(COc2nc(-c3cc(C)c4c(c3)CN(C)CC4)cnc2N)ccnc1N` [Example 35, 3-((2-amino-3-methoxypyridin-4-yl)methoxy)-5-(2,5-dimethyl-1,2,3,4-tetrahydroisoquinolin-7-yl)pyrazin-2-amine] the pIC50 was 7.80.
`Cc1cc(-c2cnc(N)c(OCc3ccnc(N)c3O[C@H]3CCOC3)n2)cc2c1CCN(C)C2` [Example 282, (S)-3-((2-amino-3-((tetrahydrofuran-3-yl)oxy)pyridin-4-yl)methoxy)-5-(2,5-dimethyl-1,2,3,4-tetrahydroisoquinolin-7-yl)pyrazin-2-amine] showed a pIC50 of 8.18.
`Cc1cc(-c2cnc(N)c(Oc3cnn([C@H]4C[C@H](C#N)C4)c3)n2)cc2c1CN(C)CC2` [Example 316, (1r,3r)-3-(4-((3-amino-6-(2,8-dimethyl-1,2,3,4-tetrahydroisoquinolin-6-yl)pyrazin-2-yl)oxy)-1H-pyrazol-1-yl)cyclobutane-1-carbonitrile] was tested, and the pIC50 was 7.07.
`Cc1cc(-c2cnc(N)c(OCc3cc(Cl)ncc3OC(C)C)n2)cc2c1CCN(C)C2` [Example 12, 3-((2-chloro-5-isopropoxypyridin-4-yl)methoxy)-5-(2,5-dimethyl-1,2,3,4-tetrahydroisoquinolin-7-yl)pyrazin-2-amine] was tested, and the pIC50 was 7.57.
For `COCCN(C)C(=O)c1cnn(-c2nc(-c3cc(C)c4c(c3)CN(C)CC4)cnc2N)c1` [Example 283, 1-(3-amino-6-(2,5-dimethyl-1,2,3,4-tetrahydroisoquinolin-7-yl)pyrazin-2-yl)-N-(2-methoxyethyl)-N-methyl-1H-pyrazole-4-carboxamide], the pIC50 was 8.20.
With `Cc1cc(-c2cnc(N)c(-n3cc(C(=O)NC4CCOC4)cn3)n2)cc2c1CCN(C)C2` (stereo not drawn) [Example 305, 1-(3-amino-6-(2,5-dimethyl-1,2,3,4-tetrahydroisoquinolin-7-yl)pyrazin-2-yl)-N-(tetrahydrofuran-3-yl)-1H-pyrazole-4-carboxamide] the pIC50 was 8.05.
With `[2H]C([2H])(Oc1nc(-c2cc(C)c3c(c2)CN(C)CC3)cnc1N)c1ccnc(N)c1` [Example 266, 3-((2-aminopyridin-4-yl)methoxy-d2)-5-(2,5-dimethyl-1,2,3,4-tetrahydroisoquinolin-7-yl)pyrazin-2-amine] the pIC50 was 8.29.
For `Cc1cc(-c2cnc(N)c(Oc3cnn(C(C)c4cccnc4)c3)n2)cc2c1CCN(C)C2` (stereo not drawn) [Example 288, 5-(2,5-dimethyl-1,2,3,4-tetrahydroisoquinolin-7-yl)-3-(1-(1-(pyridin-3-yl)ethyl)-1H-pyrazol-4-yloxy)pyrazin-2-amine], the pIC50 was 7.77.
`Cc1cc(-c2cnc(N)c(OCc3ccnc(C#CC(C)(C)C)c3)n2)cc2c1CCN(C)C2` [Example 24, 5-(2,5-dimethyl-1,2,3,4-tetrahydroisoquinolin-7-yl)-3-((2-(3,3-dimethylbut-1-yn-1-yl)pyridin-4-yl)methoxy)pyrazin-2-amine] gave a pIC50 of 7.21.
`Cc1cc(-c2cnc(N)c(OCc3ccnc(NCC4CC4)c3)n2)cc2c1CCN(C)C2` [Example 38, 3-((2-((cyclopropylmethyl)amino)pyridin-4-yl)methoxy)-5-(2,5-dimethyl-1,2,3,4-tetrahydroisoquinolin-7-yl)pyrazin-2-amine] showed a pIC50 of 7.24.
For `Cc1cc(-c2cnc(N)c(OCc3ccncc3Oc3ccccc3)n2)cc2c1CCN(C)C2` [Example 42, 5-(2,5-dimethyl-1,2,3,4-tetrahydroisoquinolin-7-yl)-3-((3-phenoxypyridin-4-yl)methoxy)pyrazin-2-amine], the pIC50 was 7.03.
`Cc1cc(-c2cnc(N)c(OCc3ccnc4ccccc34)n2)cc2c1CCN(C)C2` [Example 22, 5-(2,5-dimethyl-1,2,3,4-tetrahydroisoquinolin-7-yl)-3-(quinolin-4-ylmethoxy)pyrazin-2-amine] gave a pIC50 of 7.42.
With `Cc1cc(-c2cnc(N)c(-n3cc(C(=O)NCc4ccc(F)cc4Cl)cn3)n2)cc2c1CCN(C)C2` [Example 300, 1-(3-amino-6-(2,5-dimethyl-1,2,3,4-tetrahydroisoquinolin-7-yl)pyrazin-2-yl)-N-(2-chloro-4-fluorobenzyl)-1H-pyrazole-4-carboxamide] the pIC50 was 8.12.
Work on `Cc1cc(-c2cnc(N)c(OCc3ccnc4[nH]cnc34)n2)cc2c1CCN(C)C2` [Example 44, 3-((3H-imidazo[4,5-b]pyridin-7-yl)methoxy)-5-(2,5-dimethyl-1,2,3,4-tetrahydroisoquinolin-7-yl)pyrazin-2-amine and 3-((1H-imidazo[4,5-b]pyridin-7-yl)methoxy)-5-(2,5-dimethyl-1,2,3,4-tetrahydroisoquinolin-7-yl)pyrazin-2-amine] yielded a pIC50 of 7.72.
